Source: patent publication US20090048278A1, “Novel Quinazoline-2,4-Diamine Derivatives and Their Use as Modulators of Small-Conductance Calcium-Activated Potassium Channels” (priority 2005, published 2009)
Counter-ions that a name gives are not always drawn.

Test system: not given
Assay: not given
Details: not given

melting point	SMILES
263 to 264 °C	Clc1ccc(CNc2nc(NCc3ccc(Cl)cc3)c3ccccc3n2)cc1 (as salt: HCl) [Example 1, N^2,N^4-Bis(4-chlorobenzyl)quinazoline-2,4-diamine]
275 to 276 °C	Fc1ccc(CNc2nc(NCc3ccc(F)c(F)c3)c3ccccc3n2)cc1F (as salt: HCl) [Example 2, N^2,N^4-Bis(3,4-difluorobenzyl)quinazoline-2,4-diamine]
166 to 167 °C	Clc1ccc(CNc2nc(NC3CCCc4ccccc43)c3ccccc3n2)cc1 (centres unmarked) (as salt: HCl) [Example 11, N^2-(4-Chlorobenzyl)-N^4-(1,2,3,4-tetrahydronaphthalen-1-yl)quinazoline-2,4-diamine]
148 to 149 °C	NCc1cccc(CNc2nc(NCc3ccc(F)c(F)c3)c3ccccc3n2)c1 [Example 3, N^2-(3-Aminomethylbenzyl)-N^4-(3,4-difluorobenzyl)quinazoline-2,4-diamine]
59 to 60 °C	CN(C)c1ccc(CNc2nc(NCc3ccc(F)c(F)c3)nc3ccccc23)cc1 [Example 5, N^2-(3,4-Difluorobenzyl)-N^4-(4-dimethylaminobenzyl)quinazoline-2,4-diamine]
86 to 87 °C	Clc1ccc(CNc2nc(N3CCCCC3c3ccccc3)nc3ccccc23)cc1 (centres unmarked) [Example 6, (4-Chlorobenzyl)-[2-(2-phenylpiperidin-1-yl)quinazolin-4-yl]amine]
188 to 190.5 °C	OCCN(Cc1ccccc1)c1nc(NCc2ccc(Cl)cc2)c2ccccc2n1 [Example 7, N^2-Benzyl-N^4-(4-chlorobenzyl)-N^2-(hydroxyethyl)quinazoline-2,4-diamine]

Target: T1, hSK3 channels (Homo sapiens, UniProt Q9UGI6)
T1 construct: expressed in transfected cells; host or cells: HEK293
Assay: Whole-cell patch-clamp recording of SK3 current in HEK293 cells expressing hSK3 channels
Assay type: cell-based
Details: current at −75 mV, free Ca2+ 0.3-0.4 μM, room temperature, read-out: Ki value (concentration required for decreasing the baseline current to 50% of the initial current)
Experimental: The ionic current through small-conductance Ca^2+-activated K^+ channels (SK channels, subtype 3) was recorded using the whole-cell configuration of the patch-clamp technique.
HEK293 tissue culture cells expressing hSK3 channels were grown in DMEM (Dulbecco's Modified Eagle Medium) supplemented with 10% FCS (foetal calf serum) at 37° C. in 5% CO2. At 60-80% confluency, cells were harvested by trypsin treatment and seeded on cover slips.
Cells plated on coverslips are placed in a 15 μl perfusion chamber (flowrate ˜1 ml/min) mounted on an inverted microscope placed on a vibration-free table in a grounded Faraday cage. The experiments were performed at room temperature (20-22° C.). […] Data were stored directly on the hard-disk and analysed by IGOR software (Wavemetrics, Lake Oswega, Oreg., USA).
The whole-cell configuration of the patch-clamp technique was applied. […] Cell capacitance was electronically compensated and the resistance between the pipette and the cell interior (the series resistance, R^5) was measured and compensated for. […]
The intracellular (pipette) solution contained: 154 mM KCl, 10 mM HEPES, 10 mM EGTA. Concentrations of CaCl2 and MgCl2 needed to obtain the desired free concentrations of Ca^2+ (0.3-0.4 μM, Mg^2+ always 1 mM) were calculated by EqCal software (Cambridge, UK) and added. […]

IC50	SMILES
300 nM	N#CCCN(Cc1ccccc1)c1nc(NCc2ccc(Cl)cc2)c2ccccc2n1 [Example 8, N^2-Benzyl-N^4-(4-chlorobenzyl)-N^2-(cyanoethyl)quinazoline-2,4-diamine]
